Experimental data from BindingDB's records for doi:10.1021/acs.jmedchem.6b01595 (Dipartimento Di Chimica E Tecnologie Del Farmaco "Sapienza" …, 2017).

Biological target: T1, Histone deacetylase (Plasmodium falciparum (isolate 3D7), UniProt Q7K6A1)
T1 sequence (Q7K6A1 whole entry): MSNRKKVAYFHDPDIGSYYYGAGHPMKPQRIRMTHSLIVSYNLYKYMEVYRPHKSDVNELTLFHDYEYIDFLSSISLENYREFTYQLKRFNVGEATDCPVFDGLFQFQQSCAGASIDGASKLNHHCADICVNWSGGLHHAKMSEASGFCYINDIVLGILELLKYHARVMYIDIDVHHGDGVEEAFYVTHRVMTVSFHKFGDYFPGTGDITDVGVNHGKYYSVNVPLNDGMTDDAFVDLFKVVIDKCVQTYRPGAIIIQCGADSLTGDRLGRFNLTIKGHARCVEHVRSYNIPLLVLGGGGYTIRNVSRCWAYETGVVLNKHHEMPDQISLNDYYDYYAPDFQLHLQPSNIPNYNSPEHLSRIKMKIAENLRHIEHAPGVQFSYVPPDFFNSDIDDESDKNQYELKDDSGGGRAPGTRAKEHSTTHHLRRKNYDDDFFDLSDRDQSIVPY
Assay: Inhibition of HDAC1 in Plasmodium falciparum 3D7 nuclear extract using Ac-RGK(Ac)-AMC fluorogenic peptide as substrate preincubated for 1 hr followed by substrate addition measured after 10 min by fluorescence assay

Which IC50 does the source give for C/C=C1\NC(=O)[C@H]2CSSCC/C=C/[C@@H](CC(=O)N[C@H](C(C)C)C(=O)N2)OC(=O)[C@H](C(C)C)NC1=O here?
The IC50 was 0.9 nM.
